Measurements as given in ChEMBL document CHEMBL1152586, “Neuraminidase inhibitory activities of flavonols isolated from Rhodiola rosea roots and their in vitro anti-influenza viral activities” (Bioorg Med Chem, 2009).
The source made the active and inactive calls. The rule behind the calls is not given here.

Legend:
Sialidase = biological target: T1, Sialidase (Clostridium perfringens, UniProt P10481); test: Inhibition of Clostridium perfringens neuraminidase
T1 sequence (P10481 whole entry): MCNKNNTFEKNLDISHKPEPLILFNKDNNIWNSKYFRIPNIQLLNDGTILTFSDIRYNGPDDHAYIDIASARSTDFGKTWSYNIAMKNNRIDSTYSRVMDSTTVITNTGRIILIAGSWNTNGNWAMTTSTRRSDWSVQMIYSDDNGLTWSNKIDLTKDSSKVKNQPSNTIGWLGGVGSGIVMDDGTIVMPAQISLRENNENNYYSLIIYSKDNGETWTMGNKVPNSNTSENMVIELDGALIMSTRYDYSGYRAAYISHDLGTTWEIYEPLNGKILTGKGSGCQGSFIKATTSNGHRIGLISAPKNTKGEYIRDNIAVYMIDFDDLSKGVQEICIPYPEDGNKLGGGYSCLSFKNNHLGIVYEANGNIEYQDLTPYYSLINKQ

Neuraminidase = Neuraminidase (Influenza A virus, UniProt B4URF0); test: Noncompetitive inhibition of recombinant influenza A virus rvH1N1 A/Bervig_Mission/1/18 neuraminidase
[1] = Cytotoxicity against MDCK cells after 48 hrs by MTT assay; assay type: cell-based, Canis lupus familiaris; conditions: dog
Influenza A virus [2] = test: Antiviral activity against influenza A virus H1N1 A/PR/8/34 infected in MDCK cells assessed as reduction in virus-induced cytopathic effect; assay type: functional, organism-based; conditions: A/Puerto Rico/8/1934(H1N1)
Influenza A virus [3] = test: Antiviral activity against influenza A virus H9N2 A/Chicken/Korea/MS96/96 infected in MDCK cells assessed as reduction in virus-induced cytopathic effect; assay type: functional, organism-based; conditions: A/Chicken/Korea/MS96/96, MDCK
[4] = Selectivity index, ratio of CC50 for MDCK cells to EC50 for influenza virus H1N1 A/PR/8/34; assay type: toxicity, cell-based; conditions: dog, read-out: Ratio CC50/EC50
[5] = Selectivity index, ratio of CC50 for MDCK cells to EC50 for influenza virus H9N2 A/Chicken/Korea/MS96/96; assay type: toxicity, cell-based; conditions: dog, read-out: Ratio CC50/EC50
Influenza A virus [6] = test: Antiviral activity against influenza A virus H1N1 A/PR/8/34 infected in MDCK cells assessed as reduction in fluorescence positive cells at 50 uM immunofluorescence assay; assay type: functional, organism-based; conditions: A/Puerto Rico/8/1934(H1N1)

Structure (SMILES) | IC50 (Sialidase) [µM] | IC50 (Neuraminidase) [µM] | Ki (Neuraminidase) [µM] | CC50 at 48 h [1] [µM] | EC50 (Influenza A virus [2]) [µM] | EC50 (Influenza A virus [3]) [µM] | selectivity ratio [4] | selectivity ratio [5] | Activity (Influenza A virus [6])
O=c1c(O)c(-c2ccc(O)cc2)oc2c(O)c(O)cc(O)c12 [HERBACETIN] | 1.4 | 8.9 | 13.7 | 294 | 35 | 23 | 8.39 | 12.8 | –
O=c1c(O)c(-c2ccc(O)c(O)c2)oc2cc(O)cc(O)c12 [QUERCETIN] | 1.7 | 2.2 | 3.8 | 254 | 43.1 | 134 | 5.89 | 1.9 | –
O=c1c(O[C@@H]2O[C@H](CO)[C@@H](O)[C@H](O)[C@H]2O)c(-c2ccc(O)cc2)oc2cc(O)cc(O)c12 [ASTRAGALIN] | 29.4 | 38.4 | 33 | > 300 | 40 | 61.9 | > 7.5 | > 4.85 | –
O=c1c(O)c(-c2ccc(O)cc2)oc2cc(O)cc(O)c12 [KAEMPFEROL] | 8 | 11.2 | 21.1 | > 300 | 30.2 | 18.5 | > 9.93 | > 16.2 | Active
O=c1c(O[C@@H]2O[C@H](CO)[C@@H](O)[C@H](O)[C@H]2O)c(-c2ccc(O)cc2)oc2c(O[C@@H]3O[C@H](CO)[C@@H](O)[C@H](O)[C@H]3O)c(O)cc(O)c12 [LINOCINAMARIN] | 39.1 | 44.2 | 63.8 | > 300 | 99.1 | 100 | > 3.03 | > 3 | –
CCOC(=O)C1=C[C@@H](OC(CC)CC)[C@H](NC(C)=O)[C@@H](N)C1 [OSELTAMIVIR] | – | – | – | > 300 | 8.3 | 6.25 | – | – | Active
O=c1c(O)c(-c2ccc(O)c(O)c2)oc2c(O)c(O)cc(O)c12 [GOSSYPETIN] | 0.8 | 2.6 | 7.7 | 283 | 43 | 36.3 | 6.58 | 7.8 | –
C[C@@H]1O[C@@H](Oc2cc(O)c3c(=O)c(O)c(-c4ccc(O)cc4)oc3c2O)[C@H](O)[C@H](O[C@H]2O[C@@H](CO)[C@H](O)[C@@H](O)[C@@H]2O)[C@H]1O [RHODIOSIN] | – | – | – | – | 81.9 | 35.1 | – | – | –
COc1cc([C@H]2Oc3cc(O)c4c(=O)c(O)c(-c5ccc(O)cc5)oc4c3O[C@@H]2CO)ccc1O [RHODIOLININ] | 6.1 | 10.3 | 14.1 | > 300 | 41.7 | 29.3 | > 7.19 | > 10.2 | –
C[C@@H]1O[C@@H](OC[C@H]2O[C@@H](Oc3c(-c4ccc(O)c(O)c4)oc4cc(O)cc(O)c4c3=O)[C@H](O)[C@@H](O)[C@@H]2O)[C@H](O)[C@H](O)[C@H]1O [RUTIN] | 30.9 | 34.4 | 33.8 | – | – | – | – | – | –
C[C@@H]1O[C@@H](Oc2cc(O)c3c(=O)c(O)c(-c4ccc(O)cc4)oc3c2O)[C@H](O)[C@H](O[C@@H]2O[C@H](CO)[C@@H](O)[C@H](O)[C@H]2O)[C@H]1O [RHODIOSIN] | 56.9 | 56.5 | 64.1 | 297 | – | – | 3.63 | 8.47 | –
C[C@@H]1OC(Oc2cc(O)c3c(=O)c(O)c(-c4ccc(O)cc4)oc3c2O)[C@H](O)[C@H](O)[C@H]1O (stereo partly specified) [RHODIONIN] | 40.6 | 32.2 | 59.4 | > 300 | 74.8 | 49.6 | > 4.01 | > 6.05 | –
O=c1cc(-c2ccc(O)cc2)oc2cc(O[C@@H]3O[C@H](CO)[C@@H](O)[C@H](O)[C@H]3O)cc(O)c12 [APIGETRIN] | 39.3 | 46.9 | 53.8 | – | – | – | – | – | –
O=c1cc(-c2ccc(O)cc2)oc2cc(O)cc(O)c12 [APIGENIN] | – | 33.4 | 37.1 | > 300 | 60.4 | 42.7 | > 4.97 | > 7.03 | –
C[C@@H]1O[C@@H](OC[C@H]2O[C@@H](Oc3c(-c4ccc(O)cc4)oc4cc(O)cc(O)c4c3=O)[C@H](O)[C@@H](O)[C@@H]2O)[C@H](O)[C@H](O)[C@H]1O [NICOTIFLOROSIDE] | 55.5 | 31.7 | 32.7 | > 300 | 40.1 | 72.9 | > 7.48 | > 4.12 | –
O=c1cc(-c2ccc(O)c(O)c2)oc2cc(O)cc(O)c12 [LUTEOLIN] | 4.3 | 11 | 19.6 | 165 | 84 | 103 | 1.96 | 1.6 | –
